# “Also recorded” adds a separate entry of the source.
# How the values were obtained:
# human IAPP = molecular target: T1, human IAPP (Homo sapiens, UniProt P10997); assay: Fluorescence detected thioflavin-T assay of the time course of amyloid formation; format: biochemical; conditions: for effect on islet amyloid formation (thioflavin-T time course): compound 20 parts, human IAPP 1 part, example in present tense; for inhibition of amyloid formation by human IAPP (amylin): 20 to 1 ratio of NSAID to human IAPP, pH 7.4, 25° C.
# T1 construct: Mature, fully processed, Amylin is 37 residues in length, contains a disulfide bond between residues 2 and 7; made in house; host or cells: chemical solid-phase peptide synthesis (Fmoc), no expression host
# T1 sequence (P10997 34-70 limits assumed): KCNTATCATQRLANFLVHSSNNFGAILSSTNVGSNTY
# Description: Peptides were first dissolved in 100% hexafluoroisopropanol (HFIP) at a concentration 1.6 mM and then filtered to remove any preformed amyloid aggregates. For thioflavin-T fluorescence assays, aliquots were lyophilized and redissolved in pH 7.4, 20 mM Tris-HCl buffer at the desired concentration. Aspirin and Ketoprofen were prepared in 100% dimethyl sulfoxide (DMSO).
# Solutions were prepared by adding pH 7.4, 20 mM Tris buffer and thioflavin-T to lyophilized dry peptides for a final peptide concentration of […]. For the studies of Aspirin and Ketoprofen, 0.25% DMSO was present in the solution. Measurements were made at 25° C. using a Beckman Coulter DTX880 plate reader without stirring. An excitation filter of 430 nm and an emission filter of 485 nm were used. To test disaggregate activity of Aspirin, peptide was first incubated in low-binding 96-wells plate and monitored by plate reader to ensure the formation of amyloid fibrils.
# A mixture of flurbiprofen (1-20 parts) and human IAPP (1 part) was monitored by fluorescence detected thioflavin-T assays. The assays monitored the time course of amyloid formation (amount vs time) in the presence and absence of flurbiprofen.
# A mixture of OH-flurbiprofen and human IAPP were monitored by fluorescence detected thioflavin-T assays. Three different concentrations (1:1 ratio, 1:10 ratio and 1:20 ratio of IAPP to OH-flurbiprofen) were tested against human IAPP without any added OH-flurbiprofen. The assays monitored the time course of amyloid formation (amount vs time) in the presence and absence of a flurbiprofen derivative.
# Three different mixtures of NSAIDs (20 parts) and human IAPP (1 parts) were compared to each other and human IAPP alone by fluorescence detected thioflavin-T assays. The assays monitored the time course of amyloid formation (amount vs time) in the presence and absence of aspirin, naproxen and flurbiprofen.
# rat INS-1 beta-cells = assay: AlamarBlue cell viability of beta-cells given aliquots of the IAPP amyloid time course; format: cell-based
# Description: FIG. 5. […] (A) A thioflavin-T monitored time course of amyloid formation in the presence and absence of flurbiprofen. […] 20 mM Tris-HCl buffer with 0.25% DMSO was used as the control.
# The presence of toxic intermediates is reduced when amyloid formation is accelerated by use of flurbiprofen or a flurbiprofen derivative. A thioflavin-T monitored time course of amyloid formation by human IAPP was conducted in the presence and absence of flurbiprofen. Aliquots were removed at various time points and applied to rat INS-1 beta-cells; at thirty minutes, at 12 hours, at 48 hours. Cell viability as judged by AlamarBlue assays. 20 mM Tris-HCl buffer with 0.25% DMSO was used as the control.
# human IAPP (amylin) = molecular target: T2, human IAPP (amylin) (Homo sapiens, UniProt P10997); assay: Transmission electron microscopy of amyloid fibrils; format: biochemical
# T2 construct: Mature, fully processed, Amylin is 37 residues in length, contains a disulfide bond between residues 2 and 7; made in house; host or cells: chemical solid-phase peptide synthesis (Fmoc), no expression host
# T2 sequence (P10997 34-70 limits assumed): T1 sequence (P10997 34-70 limits assumed)
# Description: TEM was performed at the Life Science Microscopy Center at Stony Brook University. Aliquots were removed from the same solutions that were used for the fluorescence measurements. 5 μL of peptide solution was placed on carbon-coated Formvar 300 mesh copper grid for one minute and then negatively stained with saturated uranyl acetate for another one minute.
# [1] = molecular target: T3, pre-formed human amylin amyloid fibrils (Homo sapiens, UniProt P10997); assay: Disaggregation of pre-formed amylin amyloid fibrils (thioflavin-T and TEM); format: biochemical; conditions: 20-fold excess added after amyloid formation was complete; up to 48 hours
# T3 construct: Mature, fully processed, Amylin is 37 residues in length, contains a disulfide bond between residues 2 and 7; made in house; host or cells: chemical solid-phase peptide synthesis (Fmoc), no expression host
# T3 sequence (P10997 34-70 limits assumed): T1 sequence (P10997 34-70 limits assumed)
# Description: Solutions were prepared by adding pH 7.4, 20 mM Tris buffer and thioflavin-T to lyophilized dry peptides for a final peptide concentration of 16 M. For the studies of Aspirin and Ketoprofen, 0.25% DMSO was present in the solution. Measurements were made at 25° C. using a Beckman Coulter DTX880 plate reader without stirring. An excitation filter of 430 nm and an emission filter of 485 nm were used.
# [2] = tested on: 3XL-IAPP mutant (F15L, F23L, Y37L human IAPP); assay: Thioflavin-T assay of mutant human IAPP amyloid formation (3XL); format: biochemical; conditions: WT human IAPP and mutant IAPP compared
# Source text: A mixture of flurbiprofen (20 parts) and human IAPP (1 part) was monitored by fluorescence detected thioflavin-T assays. The assays monitored the time course of amyloid formation (amount vs time) in the presence and absence of flurbiprofen. The effect of flurbiprofen in wild-type (WT) human IAPP, and in two mutants of human IAPP was monitored. In one mutant, all of the aromatic amino acids in human IAPP were replaced by […] human IAPP was examined. A second mutant in which […] human IAPP) was also tested.
# [3] = Parallel biophysical and cell viability experiments on h-IAPP variants; format: cell-based
# Description: Parallel biophysical and cell viability experiments were conducted using a range of conditions that alter the length of the lag phase. h-IAPP amyloid kinetics are concentration-dependent. Decreasing the peptide concentration leads to an increase in the length of the lag phase, while an increase in human-IAPP concentration leads to a shortening of the lag phase. The length of the lag phase can also be controlled by altering the temperature. Lower temperatures lead to a longer lag phase; the lag phase is 2-fold longer at 15° C. […] A set of rationally designed Ser-20 mutations were used. Ser-20 is located at a critical position in the h-IAPP sequence and modulates its aggregation kinetics. […] Toxicity and kinetics experiments were performed on the Ser-20 mutants. […] An human-IAPP triple mutant, 3×L-IAPP, in which Leu replaced the three aromatic residues (Phe-15, Phe=23 and Tyr-37) was tested. This mutant forms amyloid 9-fold more slowly than wild type human IAPP (Marek at al. 2007). […] The duration of toxicity for all the mutants and for all the conditions with human IAPP wild type correlated with the length of the respective lag phases.
# [4] = compound 20 parts, human IAPP 1 part, example in present tense
# [5] = 20 to 1 ratio of compound to human IAPP
# [6] = IAPP:compound ratios 1:1 to 1:20, pH 7.4, 20 mM Tris, 25° C.
molecule,measurement,setting,value
"O=C(O)Cc1ccc(-c2ccccc2)c(F)c1 [2-(2-Fluorobiphenyl-4-yl)acetic acid, 2-(2-fluorobiphenyl-4-yl)acetic acid]",effect on islet amyloid formation (thioflavin-T time course),human IAPP,accelerates islet amyloid formation
same,presence and toxic effects of intermediates of amyloid formation,rat INS-1 beta-cells; [4],reduces the presence and toxic effects of intermediates of amyloid formation
"O=C(O)Cc1ccc(-c2ccccc2)cc1 [2-(Biphenyl-4-yl)acetic acid, 2-(biphenyl-4-yl)acetic acid]",effect on islet amyloid formation (thioflavin-T time course),human IAPP,accelerates islet amyloid formation
same,presence and toxic effects of intermediates of amyloid formation,rat INS-1 beta-cells; [4],reduces the presence and toxic effects of intermediates of amyloid formation
"C[C@H](C(=O)O)c1ccc(-c2ccccc2)cc1 [(S)-2-(Biphenyl-4-yl)propanoic acid, (S)-2-(biphenyl-4-yl)propanoic acid]",effect on islet amyloid formation (thioflavin-T time course),human IAPP,accelerates islet amyloid formation
same,presence and toxic effects of intermediates of amyloid formation,rat INS-1 beta-cells; [4],reduces the presence and toxic effects of intermediates of amyloid formation
CC(C(=O)O)c1cccc(C(=O)c2ccccc2)c1 (stereo not shown) [Ketoprofen],inhibition of amyloid formation by human IAPP (amylin),human IAPP,do not inhibit amylin amyloid formation
same,inhibition of amylin amyloid formation judged by TEM,"human IAPP (amylin); equimolar to 20-fold excess of Ketoprofen, 42 hours, amylin 16 μM",not an amylin amyloid inhibitor; also recorded: does not inhibit amyloid formation by amylin
same,disaggregation of pre-formed amylin amyloid fibrils,[1],unable to disassemble pre-formed amylin amyloid
COc1ccc2cc([C@H](C)C(=O)O)ccc2c1 [Naproxen],inhibition of amyloid formation by human IAPP (amylin),human IAPP,no inhibition of amyloid
same,amyloid fibrils by TEM in presence of NSAID,"human IAPP (amylin); 20-fold excess of NSAID over human IAPP, end of kinetic experiment",no changes in amyloid formation
"CC(C(=O)O)c1ccc(-c2ccc(O)cc2)c(F)c1 (stereo not shown) [OH-flurbiprofen, 2-(2-fluoro-4′-hydroxybiphenyl-4-yl) propanoic acid]",effect on human IAPP amyloid formation (thioflavin-T time course),human IAPP; [5],highest rate of acceleration of amyloid formation
same,effect on human IAPP amyloid formation (thioflavin-T time course),human IAPP; [6],accelerated islet amyloid formation; also recorded: accelerates amyloid formation by human islet amyloid polypeptide
same,presence and toxic effects of intermediates of amyloid formation,rat INS-1 beta-cells; human IAPP with compound,reduced the presence and toxic effects of intermediates of amyloid formation in a dose dependent fashion
C[C@@H](C(=O)O)c1ccc(-c2ccccc2)c(F)c1 [R-flurbiprofen],effect on human IAPP amyloid formation (thioflavin-T time course),human IAPP; [5],accelerated islet amyloid formation
same,effect on human IAPP amyloid formation (thioflavin-T time course),"human IAPP; 20 to 1 ratio of compound to human IAPP, listed as R flurbiprofen",equally effective
same,presence and toxic effects of intermediates of amyloid formation,rat INS-1 beta-cells; human IAPP with compound,reduced the presence and toxic effects of intermediates of amyloid formation
same,"acceleration of amyloid formation and reduction of toxic effects of intermediates, WT human IAPP versus mutant IAPP",[2],about equally
CC[C@H](C)[C@H](NC(=O)[C@H](C)NC(=O)CNC(=O)[C@H](Cc1ccccc1)NC(=O)[C@H](CC(N)=O)NC(=O)[C@H](CC(N)=O)NC(=O)CNC(=O)[C@H](CO)NC(=O)[C@H](Cc1c[nH]cn1)NC(=O)[C@@H](NC(=O)[C@H](CC(C)C)NC(=O)[C@H](Cc1ccccc1)NC(=O)[C@H](CC(N)=O)NC(=O)[C@H](C)NC(=O)[C@H](CC(C)C)NC(=O)[C@H](CCCNC(=N)N)NC(=O)[C@H](CCC(N)=O)NC(=O)[C@@H](NC(=O)[C@H](C)NC(=O)[C@@H]1CSSC[C@H](NC(=O)[C@@H](N)CCCCN)C(=O)N[C@@H](CC(N)=O)C(=O)N[C@@H]([C@@H](C)O)C(=O)N[C@@H](C)C(=O)N[C@@H]([C@@H](C)O)C(=O)N1)[C@@H](C)O)C(C)C)C(=O)N[C@@H](CC(C)C)C(=O)N[C@@H](CO)C(=O)N[C@@H](CO)C(=O)N[C@H](C(=O)N[C@@H](CC(N)=O)C(=O)N[C@H](C(=O)NCC(=O)N[C@@H](CO)C(=O)N[C@@H](CC(N)=O)C(=O)N[C@H](C(=O)N[C@@H](Cc1ccc(O)cc1)C(N)=O)[C@@H](C)O)C(C)C)[C@@H](C)O [S20G-IAPP],onset and duration of toxicity relative to wild type human IAPP,[3],more rapid onset and shorter duration of toxicity
CC[C@H](C)[C@H](NC(=O)[C@H](C)NC(=O)CNC(=O)[C@H](Cc1ccccc1)NC(=O)[C@H](CC(N)=O)NC(=O)[C@H](CC(N)=O)NC(=O)[C@H](CCCCN)NC(=O)[C@H](CO)NC(=O)[C@H](Cc1c[nH]cn1)NC(=O)[C@@H](NC(=O)[C@H](CC(C)C)NC(=O)[C@H](Cc1ccccc1)NC(=O)[C@H](CC(N)=O)NC(=O)[C@H](C)NC(=O)[C@H](CC(C)C)NC(=O)[C@H](CCCNC(=N)N)NC(=O)[C@H](CCC(N)=O)NC(=O)[C@@H](NC(=O)[C@H](C)NC(=O)[C@@H]1CSSC[C@H](NC(=O)[C@@H](N)CCCCN)C(=O)N[C@@H](CC(N)=O)C(=O)N[C@@H]([C@@H](C)O)C(=O)N[C@@H](C)C(=O)N[C@@H]([C@@H](C)O)C(=O)N1)[C@@H](C)O)C(C)C)C(=O)N[C@@H](CC(C)C)C(=O)N[C@@H](CO)C(=O)N[C@@H](CO)C(=O)N[C@H](C(=O)N[C@@H](CC(N)=O)C(=O)N[C@H](C(=O)NCC(=O)N[C@@H](CO)C(=O)N[C@@H](CC(N)=O)C(=O)N[C@H](C(=O)N[C@@H](Cc1ccc(O)cc1)C(N)=O)[C@@H](C)O)C(C)C)[C@@H](C)O [S20K-human IAPP],onset and duration of toxicity relative to wild type human IAPP,[3],increased the duration of toxicity
S-Flurbiprofen,effect on human IAPP amyloid formation (thioflavin-T time course),"human IAPP; 20 to 1 ratio of compound to human IAPP, listed as S flurbiprofen",equally effective
same,effect on human IAPP amyloid formation (thioflavin-T time course),"human IAPP; 20 to 1 ratio of compound to human IAPP, listed as S-flurbiprofen",accelerated islet amyloid formation
same,effect on human IAPP amyloid formation (thioflavin-T time course),human IAPP; [6],accelerates amyloid formation by human IAPP in a dose dependent manner
same,presence and toxic effects of intermediates of amyloid formation,rat INS-1 beta-cells; human IAPP with compound,reduced the presence and toxic effects of intermediates of amyloid formation
same,"acceleration of amyloid formation and reduction of toxic effects of intermediates, WT human IAPP versus mutant IAPP",[2],about equally

# — patent US20160038448A1, “THE INHIBITION OF THE TOXIC EFFECTS OF ISLET AMYLOID FORMATION BY FLURBIPROFEN AND FLURBIPROFEN DERIVATIVES” (The Research Foundation for the State University of New York, priority 2013, published 2016)
